This passage reports IC50 results from patent US20250099596A1, “TETRAHYDRONAPHTHALENE COMPOUND, AND PREPARATION METHOD THEREFOR AND USE THEREOF IN MEDICINE” (Jiangsu Hengrui Pharmaceuticals Co., Ltd., priority 2021, published 2025).

The structures appear in SMILES notation.

One experiment deals with MCF7/ERα Y537S cells. Nature of the experiment: Inhibitory activity on proliferation of ERα mutant-expressing MCF7 cells. In kind it is cell-based. The following applies: Homo sapiens, 144 h, 6 days incubation, CellTiter-Glo, read-out: IC50 (nM), inhibition of proliferation of ERα mutant-expressing MCF7 cells. How it is done: The objective of this experiment was to determine the inhibitory activity of the compounds of the present disclosure on the proliferation of ERα mutant-expressing MCF7 cells.
(§1) MCF7 cells expressing the ERα Y537S mutant were constructed by lentiviral infection. MCF7/ERα Y537S cells were cultured in an MEM (GE Healthcare, SH30024.01) complete medium containing 10% fetal bovine serum and 1 g/mL puromycin. On day 1 of the experiment, cells were seeded into a 96-well plate at a density of 3,000 cells/well using MEM containing 2% fetal bovine serum, with each well containing 135 µL of cell suspension. The plate was incubated in a 37° C., 5% CO2 cell incubator overnight. The next day, different concentrations of test compounds prepared in media were added at 15 μL/well. The final concentrations of the compounds were 9 concentration points obtained by 4-fold serial dilution from 1000 nM. A blank control containing 0.5% DMSO was set up. The plate was incubated in a 37° C., 5% CO2 cell incubator for 6 days. On day 8, the 96-well cell culture plate was taken out, and CellTiter-Glo® Luminescent Cell Viability Assay (Promega, G7573) was added at 75 µL/well. After the plate was left at room temperature for 10 min, luminescence signal readings were taken on a multilabel microplate reader (PerkinElmer, VICTOR 3). The IC50 values for the inhibitory activity of the compounds were calculated from the concentrations of the compounds and the luminescence signal readings using Graphpad Prism software.
For orientation: Cellular ATP, detected with luciferase, serves as a proxy for viable cell number.

In another experiment the test system is MCF7 cells. Nature of the experiment: Inhibitory effects on MCF7 cell proliferation (CellTiter-Glo). The experiment is classed as cell-based. The note with it: Homo sapiens, 144 h, 6 days incubation, read-out: IC50 (nM), inhibition of MCF7 cell proliferation. How it is done: as §1, with “(TCHu74, National Collection of Authenticated Cell Cultures)” for “expressing the ERα Y537S mutant were constructed by lentiviral infection. MCF7/ERα Y537S cells”, “serum.” for “serum and 1 g/mL puromycin.”, “experiment, MCF7” for “experiment,”, “μL” for “µL”, “μL/well.” for “µL/well.”

Regarding `O=C1CC[C@H](N2Cc3cc(N4CCN(CC5CCN(c6ccc([C@@H]7c8ccc(O)cc8CC[C@@H]7C7CC7)cc6F)CC5)CC4)ccc3C2=O)C(=O)N1` [Example 21, (S)-3-(5-(4-((1-(4-((1R,2R)-2-Cyclopropyl-6-hydroxy-1,2,3,4-tetrahydronaphthalen-1-yl)-2-fluorophenyl)piperidin-4-yl)methyl)piperazin-1-yl)-1-oxoisoindolin-2-yl)piperidine-2,6-dione], the IC50 in the experiment with MCF7/ERα Y537S cells turned out to be 5.66 nM; in the experiment with MCF7 cells, 1.72 nM.
In the case of `CC(C)C[C@H]1CCc2cc(O)ccc2[C@H]1c1ccc(N2CCC(CN3CCN(c4ccc5c(c4)CN([C@@H]4CCC(=O)NC4=O)C5=O)CC3)CC2)cc1` [Example 42, (R)-3-(5-(4-((1-(4-((1R,2R)-6-Hydroxy-2-isobutyl-1,2,3,4-tetrahydronaphthalen-1-yl)phenyl)piperidin-4-yl)methyl)piperazin-1-yl)-1-oxoisoindolin-2-yl)piperidine-2,6-dione], the IC50 is 3.09 nM in the experiment on MCF7/ERα Y537S cells and 0.88 nM with MCF7 cells.
As to `CC(C)C[C@H]1CCc2cc(O)ccc2[C@H]1c1ccc(N2CCC(CN3CCN(c4ccc5c(c4)CN(C4CCC(=O)NC4=O)C5=O)CC3)CC2)cc1` (mixture of isomers) [Example 41, 3-(5-(4-((1-(4-((1R,2R)-6-Hydroxy-2-isobutyl-1,2,3,4-tetrahydronaphthalen-1-yl)phenyl)piperidin-4-yl)methyl)piperazin-1-yl)-1-oxoisoindolin-2-yl)piperidine-2,6-dione], the values for the IC50 in the experiment with MCF7/ERα Y537S cells and in the experiment with MCF7 cells were 2.89 nM and 0.62 nM, respectively.
As for `O=C1CCC(N2Cc3cc(N4CCN(CC5CCN(c6ccc([C@@H]7c8ccc(O)cc8CCC78CCCC8)cc6)CC5)CC4)ccc3C2=O)C(=O)N1` (mixture of isomers) [Example 2-1, 3-(5-(4-((1-(4-((R)-6′-Hydroxy-3′,4′-dihydro-1′H-spiro[cyclopentane-1,2′-naphthalen]-1′-yl)phenyl)piperidin-4-yl)methyl)piperazin-1-yl)-1-oxoisoindolin-2-yl)piperidine-2,6-dione], the results for the IC50 in the experiment on MCF7/ERα Y537S cells and in the experiment on MCF7 cells were 7.83 nM and 1.94 nM, respectively.
Regarding `O=C1CC[C@H](N2Cc3cc(N4CCN(CC5CCN(c6ccc([C@@H]7c8ccc(O)cc8CC[C@@H]7C7CCC7)cc6)CC5)CC4)ccc3C2=O)C(=O)N1` [Example 13-1, (S)-3-(5-(4-((1-(4-((1R,2R)-2-Cyclobutyl-6-hydroxy-1,2,3,4-tetrahydronaphthalen-1-yl)phenyl)piperidin-4-yl)methyl)piperazin-1-yl)-1-oxoisoindolin-2-yl)piperidine-2,6-dione], the IC50 in the experiment with MCF7/ERα Y537S cells turned out to be 4.79 nM; in the experiment on MCF7 cells it was 0.83 nM.
Consider `O=C1CCC(N2Cc3cc(N4CCN(CC5CCN(c6ccc([C@H]7c8ccc(O)cc8CC[C@H]7C7CCOCC7)c(F)c6)CC5)CC4)ccc3C2=O)C(=O)N1` (mixture of isomers) [Example 12-2, 3-(5-(4-((1-(3-Fluoro-4-((1R,2S)-6-hydroxy-2-(tetrahydro-2H-pyran-4-yl)-1,2,3,4-tetrahydronaphthalen-1-yl)phenyl)piperidin-4-yl)methyl)piperazin-1-yl)-1-oxoisoindolin-2-yl)piperidine-2,6-dione], for which the IC50 with MCF7/ERα Y537S cells came out at 39.4 nM; with MCF7 cells it was 13.7 nM.
Consider `CC1(C)CCc2cc(O)ccc2[C@H]1c1ccc(N2CCC(CN3CCN(c4ccc5c(c4)CN(C4CCC(=O)NC4=O)C5=O)CC3)CC2)cc1` (mixture of isomers) [Example 25-1, 3-(5-(4-((1-(4-((R)-6-Hydroxy-2,2-dimethyl-1,2,3,4-tetrahydronaphthalen-1-yl)phenyl)piperidin-4-yl)methyl)piperazin-1-yl)-1-oxoisoindolin-2-yl)piperidine-2,6-dione], for which the IC50 in the experiment on MCF7/ERα Y537S cells stood at 12.9 nM; in the experiment with MCF7 cells, 2.46 nM.
Consider `O=C1CCC(N2Cc3cc(N4CCN(CC5CCN(c6ccc([C@@H]7c8ccc(O)cc8CC[C@@H]7C7CCOCC7)cc6)CC5)CC4)ccc3C2=O)C(=O)N1` (mixture of isomers) [Example 8-1, 3-(5-(4-((1-(4-((1R,2R)-6-Hydroxy-2-(tetrahydro-2H-pyran-4-yl)-1,2,3,4-tetrahydronaphthalen-1-yl)phenyl)piperidin-4-yl)methyl)piperazin-1-yl)-1-oxoisoindolin-2-yl)piperidine-2,6-dione], for which the IC50 was found to be 2.8 nM with MCF7/ERα Y537S cells and 0.46 nM in the experiment with MCF7 cells.
With `O=C1CCC(N2Cc3cc(N4CCN(CC5CCN(c6ccc(C7c8ccc(O)cc8CC[C@@H]7C7CCOCC7)cc6)CC5)CC4)ccc3C2=O)C(=O)N1` (stereo partly drawn) [Example 7, 3-(5-(4-((1-(4-((1,2)-cis-6-Hydroxy-2-(tetrahydro-2H-pyran-4-yl)-1,2,3,4-tetrahydronaphthalen-1-yl)phenyl)piperidin-4-yl)methyl)piperazin-1-yl)-1-oxoisoindolin-2-yl)piperidine-2,6-dione], the figures for the IC50 with MCF7/ERα Y537S cells and in the experiment on MCF7 cells were 3.31 nM and 0.67 nM, respectively.
With `O=C1CCC(N2Cc3cc(N4CCN(CC5CCN(c6ccc([C@@H]7c8ccc(O)cc8CCC78CCCC8)cc6F)CC5)CC4)ccc3C2=O)C(=O)N1` (stereo in doubt) [Example 36, (S)-3-(5-(4-((1-(2-Fluoro-4-((R)-6′-hydroxy-3′,4′-dihydro-1′H-spiro[cyclopentane-1,2′-naphthalen]-1′-yl)phenyl)piperidin-4-yl)methyl)piperazin-1-yl)-1-oxoisoindolin-2-yl)piperidine-2,6-dione], the IC50 was determined as 8.35 nM in the experiment with MCF7/ERα Y537S cells and 1.56 nM in the experiment on MCF7 cells.
As to `O=C1CCC(N2Cc3cc(N4CCN(CC5CCN(c6ccc([C@@H]7c8ccc(O)cc8CC[C@@H]7C7CCCC7)cc6)CC5)CC4)ccc3C2=O)C(=O)N1` (mixture of isomers) [Example 14-1, 3-(5-(4-((1-(4-((1R,2R)-2-Cyclopentyl-6-hydroxy-1,2,3,4-tetrahydronaphthalen-1-yl)phenyl)piperidin-4-yl)methyl)piperazin-1-yl)-1-oxoisoindolin-2-yl)piperidine-2,6-dione], the IC50 with MCF7/ERα Y537S cells was found to be 2.45 nM; with MCF7 cells, 0.75 nM.
In the same order, the values of `O=C1CCC(N2Cc3cc(N4CCN(CC5CCN(c6ccc(C7c8ccc(O)cc8CCC78CCCC8)cc6)CC5)CC4)ccc3C2=O)C(=O)N1` (stereo not shown) [Example 1, 3-(5-(4-((1-(4-(6′-Hydroxy-3′,4′-dihydro-1′H-spiro[cyclopentane-1,2′-naphthalen]-1′-yl)phenyl)piperidin-4-yl)methyl)piperazin-1-yl)-1-oxoisoindolin-2-yl)piperidine-2,6-dione] are 14.9 nM and 6.15 nM.
As for `O=C1CCC(N2Cc3cc(N4CCN(CC5CCN(c6ccc([C@@H]7c8ccc(O)cc8CC[C@@H]7C7CCOCC7)c(F)c6)CC5)CC4)ccc3C2=O)C(=O)N1` (mixture of isomers) [Example 12-1, 3-(5-(4-((1-(3-Fluoro-4-((1S,2R)-6-hydroxy-2-(tetrahydro-2H-pyran-4-yl)-1,2,3,4-tetrahydronaphthalen-1-yl)phenyl)piperidin-4-yl)methyl)piperazin-1-yl)-1-oxoisoindolin-2-yl)piperidine-2,6-dione], the values for the IC50 in the experiment with MCF7/ERα Y537S cells and with MCF7 cells were 1.28 nM and 0.45 nM, respectively.
Take `O=C1CC[C@H](N2Cc3cc(N4CCN(CC5CCN(c6ccc([C@@H]7c8ccc(O)cc8CC[C@@H]7Cc7ccccc7)cc6)CC5)CC4)ccc3C2=O)C(=O)N1` [Example 30, (S)-3-(5-(4-((1-(4-((1R,2R)-2-Benzyl-6-hydroxy-1,2,3,4-tetrahydronaphthalen-1-yl)phenyl)piperidin-4-yl)methyl)piperazin-1-yl)-1-oxoisoindolin-2-yl)piperidine-2,6-dione]: the IC50 was found to be 12.7 nM with MCF7/ERα Y537S cells and 3.02 nM in the experiment on MCF7 cells.
